From ChEMBL document CHEMBL5715940 (Curr Biol, 2007)
Activity calls are given as the source filed them. Residues, ends and D or L forms follow the SMILES beside them. *: point of attachment. Cbz = O=C(OCc1ccccc1)*

Tests used:
[1] = biological target: Serine/threonine-protein kinase PLK1 (Homo sapiens) (UniProt P53350); assay: Inhibition of Plk1 in human HeLa cells assessed as low level of cyclin B in total lysates of cells arrested in mitosis at 100 nM for 13 hr after the second thymidine release by immunoblot analysis
Sequence of Serine/threonine-protein kinase PLK1 (Homo sapiens) (P53350 whole entry): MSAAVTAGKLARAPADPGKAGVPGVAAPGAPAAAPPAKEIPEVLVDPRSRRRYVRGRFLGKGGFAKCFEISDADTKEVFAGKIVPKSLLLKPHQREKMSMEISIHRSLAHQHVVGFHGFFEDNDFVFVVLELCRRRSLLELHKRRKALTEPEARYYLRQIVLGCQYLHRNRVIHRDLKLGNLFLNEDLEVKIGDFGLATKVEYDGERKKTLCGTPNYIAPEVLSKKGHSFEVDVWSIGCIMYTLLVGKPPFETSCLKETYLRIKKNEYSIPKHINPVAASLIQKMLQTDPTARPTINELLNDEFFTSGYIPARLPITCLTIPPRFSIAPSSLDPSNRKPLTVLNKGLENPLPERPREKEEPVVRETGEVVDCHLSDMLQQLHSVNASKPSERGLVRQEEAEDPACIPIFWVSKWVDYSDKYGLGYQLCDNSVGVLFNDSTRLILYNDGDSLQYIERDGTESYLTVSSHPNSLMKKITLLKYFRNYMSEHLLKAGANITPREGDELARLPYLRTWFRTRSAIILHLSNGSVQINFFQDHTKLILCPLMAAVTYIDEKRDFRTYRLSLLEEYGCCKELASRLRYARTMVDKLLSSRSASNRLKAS

HeLa [2] = assay: Induction of mitotic arrest in human HeLa cells with expressing H2B-GFP assessed as cells formed multilobed nuclei at 100 nM; assay type: functional, cell-based
[3] = biological target: Serine/threonine-protein kinase PLK1 (Homo sapiens) (UniProt P53350); assay: Inhibition of Plk1 in human HeLa cells assessed as high level of cyclin B in total lysates of cells arrested in mitosis at 50 ng/ml for 13 hr after the second thymidine release by immunoblot analysis
HeLa [4] = assay: Induction of mitotic arrest in human HeLa cells s stably expressing CENPA-GFP assessed as attachment of kinetochores to microtubule at 10 uM for 2 hrs by live cell imaging analysis; assay type: functional, cell-based
HeLa [5] = assay: Induction of mitotic arrest in human HeLa cells stably expressing CENPA-GFP assessed as appearance of shortened spindle formation at 10 uM incubated for 120 mins by live cell imaging analysis; assay type: functional, cell-based
HeLa [6] = assay: Induction of mitotic arrest in human HeLa cells assessed as cell population in prophase incubated for 4 hrs after thymidine release relative to control relative to control; assay type: functional
HeLa [7] = assay: Induction of mitotic arrest in human HeLa cells assessed as appearance of collapse spindle formation at 100 nM for 120 mins after thymidine release in the presence of MG132 by immunofluorescence microscopy; assay type: functional, cell-based
HeLa [8] = assay: Induction of mitotic arrest in human HeLa cells s stably expressing CENPA-GFP assessed as focus on poles at 10 uM within 10 to 30 mins by live cell imaging analysis; assay type: functional, cell-based; details: time 10-30 min
HeLa [9] = assay: Induction of mitotic arrest in human HeLa cells s stably expressing CENPA-GFP assessed as prophase microtubule asters at 100 nM for 4 hr after release by immunofluorescence analysis; assay type: functional, cell-based
HeLa [10] = assay: Induction of mitotic arrest in human HeLa cells with expressing H2B-GFP assessed as enter the apoptosis at 100 nM; assay type: functional, cell-based
HeLa [11] = assay: Induction of mitotic arrest in human HeLa cells s stably expressing CENPA-GFP assessed as appear on mitotic microtubule at 100 nM for 4 hr release after NEBD by immunofluorescence analysis; assay type: functional, cell-based
HeLa [12] = assay: Induction of mitotic arrest in human HeLa cells assessed as appearance of kinetochore plates connected to few microtubules and lateral attachment at 100 nM incubated for 2 hrs after cold treatment by transmission electron microscopy; assay type: functional, cell-based
HeLa [13] = assay: Induction of mitotic arrest in human HeLa cells s stably expressing CENPA-GFP assessed as microtubules instantaneously organized to monopolar spindle at 100 nM for 4 hrs after NEBD by immunofluorescence analysis; assay type: functional, cell-based
HeLa [14] = assay: Induction of mitotic arrest in human HeLa cells assessed as microtubule structures at 100 nM incubated for 2 hrs after cold treatment by immunofluorescence analysis; assay type: functional, cell-based
HeLa [15] = assay: Induction of mitotic arrest in human HeLa cells assessed as weakly centrosome in prometaphase arrested cells at 100 nM for 2 hrs by immunofluorescence analysis; assay type: functional, cell-based
HeLa [16] = assay: Induction of mitotic arrest in human HeLa cells s stably expressing CENPA-GFP assessed as spindles lost astral microtubules at 10 uM within 10 to 30 mins by live cell imaging analysis; assay type: functional, cell-based; details: time 10-30 min
HeLa [17] = assay: Induction of mitotic arrest in human HeLa cells assessed as appearance of shortened spindle formation at 100 nM for 60 mins after thymidine release in the presence of MG132 by immunofluorescence microscopy; assay type: functional, cell-based
HeLa [18] = assay: Induction of mitotic arrest in human HeLa cells assessed as appearance of spindles lose the focused poles at 100 nM for 30 mins after thymidine release in the presence of MG132 by immunofluorescence microscopy; assay type: functional, cell-based
HeLa [19] = assay: Induction of mitotic arrest in human HeLa cells assessed as dim kinetochore signal in prometaphase arrested cells at 100 nM for 2 hrs by immunofluorescence analysis; assay type: functional, cell-based
HeLa [20] = assay: Induction of mitotic arrest in human HeLa cells s stably expressing CENPA-GFP assessed as appearance of kinetochore pairs lose at 10 uM for 60 mins by live cell imaging analysis; assay type: functional, cell-based
HeLa [21] = assay: Induction of mitotic arrest in human HeLa cells with stably express GFP-tagged histone H2B assessed as decrease in prometaphase after thymidine release; assay type: functional, cell-based
HeLa [22] = assay: Induction of mitotic arrest in human HeLa cells assessed as increase of cell population in prophase incubated for 3 hrs after thymidine release; assay type: functional, cell-based
HeLa [23] = assay: Induction of mitotic arrest in human HeLa cells assessed as appearance of kinetochore in opposite side of the chromosomes at 100 nM incubated for 2 hrs after cold treatment by transmission electron microscopy; assay type: functional, cell-based
HeLa [24] = assay: Induction of mitotic arrest in human HeLa cells with stably express GFP-tagged histone H2B assessed as chromosome condensation measured at 730 mins after thymidine release; assay type: functional, cell-based
HeLa [25] = assay: Induction of mitotic arrest in human HeLa cells assessed as increase of cell population in prophase incubated for 6 hrs after thymidine release; assay type: functional, cell-based
HeLa [26] = assay: Induction of mitotic arrest in human HeLa cells s stably expressing CENPA-GFP assessed as spindle poles often broadened at 10 uM for 30 mins by live cell imaging analysis; assay type: functional, cell-based
HeLa [27] = assay: Induction of mitotic arrest in human HeLa cells with expressing H2B-GFP assessed as cells formed multilobed nuclei at 100 nM in the presence of hesperadin; assay type: functional, cell-based
[28] = biological target: Serine/threonine-protein kinase PLK1 (Homo sapiens) (UniProt P53350); details: HeLa, dose 100.0 nM, time 12.0 min
[29] = biological target: Serine/threonine-protein kinase PLK1 (Homo sapiens) (UniProt P53350); details: HeLa, dose 100.0 nM, time 12.0 min; remark: listed apart in the source
HeLa [30] = assay: Induction of mitotic arrest in human HeLa cells assessed as K-fibers persisted cells at […] incubated for 2 hrs after cold treatment by immunofluorescence analysis; assay type: functional, cell-based
HeLa [31] = assay: Induction of mitotic arrest in human HeLa cells assessed as appearance of microtubule bundles visible at many kinetochores at […] incubated for 2 hrs after cold treatment by transmission electron microscopy; assay type: functional, cell-based
HeLa [32] = assay: Induction of mitotic arrest in human HeLa cells assessed as appearance of kinetochore plates arranged on the spindle center at […] incubated for 2 hrs after cold treatment by transmission electron microscopy; assay type: functional, cell-based

CCS(=O)(=O)Nc1ccc2c(c1)/C(=C(\Nc1ccc(CN3CCCCC3)cc1)c1ccccc1)C(=O)N2
active: inhibition [1] | Activity (HeLa [2])

COC(=O)Nc1nc2cc(C(=O)c3cccs3)ccc2[nH]1
active: inhibition [3]

CC(C)C[C@@H](C=O)NC(=O)[C@H](CC(C)C)NC(=O)[C@H](CC(C)C)NC(=O)OCc1ccccc1 (Cbz-Leu-Leu-Leu-aldehyde)
active: Activity (HeLa [4])

CC[C@@H]1C(=O)N(C)c2cnc(Nc3ccc(C(=O)NC4CCN(C)CC4)cc3OC)nc2N1C1CCCC1 [BI-2536]
inactive: Activity (HeLa [9]) | Activity (HeLa [14])
active: Activity (HeLa [5]) | Activity (HeLa [7]) | Activity (HeLa [8]) | Activity (HeLa [10]) | Activity (HeLa [11]) | Activity (HeLa [12]) | Activity (HeLa [13]) | Activity (HeLa [15]) | Activity (HeLa [16]) | Activity (HeLa [17]) | Activity (HeLa [18]) | Activity (HeLa [19]) | Activity (HeLa [20]) | Activity (HeLa [21]) | Activity (HeLa [22]) | Activity (HeLa [23]) | Activity (HeLa [24]) | Activity (HeLa [25]) | Activity (HeLa [26]) | Activity (HeLa [27])
30%: Activity (HeLa [6])

CCOC(=O)C1=C(C)NC(=S)NC1c1cccc(O)c1 (stereo not drawn) [MONASTROL]
5%: Activity (HeLa [6])
active: inhibition [28] | inhibition [29] | Activity (HeLa [30]) | Activity (HeLa [31]) | Activity (HeLa [32])
